Assay results published in patent US20210205272A1, “DOSING REGIMENS FOR TREATMENT OF SOLID TUMORS HAVING ONE OR MORE GENETIC ALTERATIONS IN FGFR1, FGFR2, AND/OR FGFR3” (DEBIOPHARM INTERNATIONAL, S.A., priority 2018, published 2021).

Columns and labels:
[1] = tested on: advanced solid tumors harboring FGFR 1, 2 or 3 gene alterations; assay: Phase I dose escalation Debio 1347-101: tumor response by RECIST 1.1; format: in vivo, human
clinical = conditions: in vivo
[2] = tested on: advanced solid malignancies of any histological tumor type harboring an FGFR 1, 2 or 3 fusion; assay: Expansion part of Debio 1347-101 phase I study: tumor response by RECIST 1.1; format: in vivo, human; conditions: 80 mg once daily
Experimental: The primary objective of this expansion phase is to confirm the safety profile at the RP2D of 80 mg once daily.
As of January 2019, two patients achieved a BOR of PR by investigator assessment according to RECIST 1.1 criteria, one suffering from a cholangiocarcinoma harboring a FGFR2-TACC2 fusion and one suffering from a colon cancer harboring a FGFR2-RP11-89K10.1 fusion.

[3] = 10 patients with confirmed FGFR fusions, doses ≥60 mg/day
[4] = confirmed FGFR fusions, doses ≥60 mg/day
[5] = one patient, intrahepatic cholangiocarcinoma, FGFR2 deletion of exon 5

In the case of `Cc1nc2cc(-n3ncc(C(=O)c4cc5ccccc5[nH]4)c3N)ccc2[nH]1` [Debio 1347, 5-amino-1-(2-methyl-1H-benzo[d]imidazol-5-yl)-1H-pyrazol-4-yl 1H-indol-2-yl ketone], the “patients achieving PR” value [1, 3] is reported as 3 patients, the “patients achieving disease stabilization” value [1, 3] is reported as 5 patients and the “patients with progressive disease” value ([1]; 57 evaluable patients) is reported as 35 patients. The “patients with stable disease” value ([1]; 57 evaluable patients) was 16 patients, the “tumor type, FGFR alteration and dose of the six PRs” value ([1]; 57 evaluable patients) was “two had urothelial carcinoma (FGFR3 fusion—80, 150 mg), the others uterine (FGFR1 amplified—30 mg), cervical (FGFR2 amplified—80 mg), colon cancer (FGFR1 amplified—110 mg) or cholangiocarcinoma (FGFR2 mutation—110 mg)” and the “patients with partial response (PR), overall” value ([1]; 57 patients evaluable for tumor response) was 6 patients. The “disease control rate (DCR) overall” value ([1]; all evaluable patients) was 38.6%, the “response after independent centralized radiological review” value ([1]; cholangiocarcinoma, FGFR2 mutation, 110 mg) was “confirmed completed response (CR)” and the “disease control rate (DCR)” value [1, 4] was 80%. For the same molecule, the “median treatment duration in patients with disease control” value [1, 4] was 34 weeks, the “range of treatment duration in patients with disease control” value [1, 4] was 24-47 weeks and the antitumor activity ([1]; mainly FGFR2 or 3 gene alterations incl. fusion/translocation, 80 mg and 110 mg daily) was “Encouraging antitumor activity”. The “stable disease patients with reduced target lesion size ≤30% at least once on-treatment” value ([1]; of 16 with stable disease) was 10 patients, the “patients with progressive disease per clinical assessment in absence of radiographic evidence” value ([1]; of 35 with progressive disease) was 13 patients and the “duration of partial response” value [1, 5] was “up to 48 weeks”. The “response upon independent radiological review” value [1, 5] was “complete response”, the half-life (clinical; human, po) was 11.5 h and the hyperphosphatemia dose relation (clinical) was “dose-dependent”. The drug-related deaths (58 treated patients) was “no death was considered drug-related”, the “maximum tolerated dose (MTD)” value (escalated up to 150 mg, ≤2 DLTs at the same dose level) was “not formally reached” and the “TEAE highest severity grade 1” value (human, in vivo) was 4 (6.9%) patients. For the same molecule, the “TEAE highest severity grade 2” value (human, in vivo) was 17 (29.3%) patients, the “TEAE highest severity grade 3” value (human, in vivo) was 28 (48.3%) patients and the “TEAE highest severity grade 4” value (human, in vivo) was 2 (3.4%) patients. For the same molecule, the “number of serious adverse effects (SAEs)” value (human, in vivo) was 39 SAEs, the “patients experiencing serious adverse effects (SAEs)” value (human, in vivo) was 20 patients and the “patients requiring a dose reduction” value (human, in vivo) was 20%. For the same molecule, the “patients requiring a dose reduction after the 28-day DLT period” value (human, in vivo) was 7 out of 9, the “patients requiring dose modifications due to adverse events” value (human, in vivo) was 30 (51.7%) patients and the “SAEs deemed possibly study drug related (DLTs)” value (in vivo) was “two”. For the same molecule, the “TEAEs most often severe (grade >2)” value (in vivo) was “hyperphosphatemia, anemia, hyponatremia, and dyspnea”, the dose reduction required (in vivo) was “no dose reduction was required at all” and the “most common TEAEs with an incidence ≥25%” value (in vivo) was “hyperphosphatemia, diarrhea, nausea, fatigue, constipation, decreased appetite, nail changes, and dry mouth”. The safety profile (in vivo) was “tolerable and manageable safety profile”, the “TEAE highest severity grade 5” value (of 58 treated patients) was 7 (12.1%) patients and the “patients died from disease progression” value (of 58 treated patients) was 21 patients. The tumor volume reduction ([2]; cholangiocarcinoma FGFR2-ATAD2 fusion, after 6 weeks of treatment) was “about 7%”, the “patients with BOR of PR by investigator assessment” value ([2]; cholangiocarcinoma FGFR2-TACC2 fusion and colon cancer FGFR2-RP11-89K10.1 fusion, as of January 2019) was “two” and the best response ([2]; one patient, cholangiocarcinoma FGFR2-ATAD2 fusion) was “disease stabilization (SD)”.
